PubChem BioAssay (NCI)
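Dose response: 5 concentrations. Exposure: 48 h. Format: 96-well plates. Endpoint: linear interpolation; highest concentration if not reached. GI50: concentration for 50% inhibition of growth. TGI marks complete inhibition of growth.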

Key:
Test in all cases: inhibition of tumour cell growth, NCI panel, 48 h
RXF 393 renal = test system: RXF 393 renal
ACHN renal = test system: ACHN renal
PC-3 prostate = test system: PC-3 prostate
HOP-62 NSCLC = test system: HOP-62 NSCLC
CCRF-CEM leukemia = test system: CCRF-CEM leukemia
HS 578T breast = test system: HS 578T breast
OVCAR-4 ovarian = test system: OVCAR-4 ovarian
NCI-H522 lung = test system: NCI-H522 lung
OVCAR-8 ovarian = test system: OVCAR-8 ovarian
CAKI-1 renal = test system: CAKI-1 renal
COLO 205 colon = test system: COLO 205 colon
EKVX NSCLC = test system: EKVX NSCLC
SF-539 CNS = test system: SF-539 CNS
HL-60(TB) leukemia = test system: HL-60(TB) leukemia
T-47D breast = test system: T-47D breast
SF-268 CNS = test system: SF-268 CNS
OVCAR-3 ovarian = test system: OVCAR-3 ovarian
BT-549 breast = test system: BT-549 breast
HCC-2998 colon = test system: HCC-2998 colon
M14 melanoma = test system: M14 melanoma
A549 NSCLC = test system: A549 NSCLC
K-562 leukemia = test system: K-562 leukemia
LOX IMVI melanoma = test system: LOX IMVI melanoma
SNB-19 CNS = test system: SNB-19 CNS
U251 CNS = test system: U251 CNS
NCI-H23 lung = test system: NCI-H23 lung
HCT-15 colon = test system: HCT-15 colon
MDA-MB-231 breast = test system: MDA-MB-231 breast
MDA-MB-435 = test system: MDA-MB-435
MCF7 breast = test system: MCF7 breast
SK-MEL-2 melanoma = test system: SK-MEL-2 melanoma
MDA-N = test system: MDA-N
NCI/ADR-RES ovarian = test system: NCI/ADR-RES ovarian
SNB-75 CNS = test system: SNB-75 CNS
SF-295 CNS = test system: SF-295 CNS
SN12C renal = test system: SN12C renal
SW-620 colon = test system: SW-620 colon
IGROV1 ovarian = test system: IGROV1 ovarian
RPMI-8226 leukemia = test system: RPMI-8226 leukemia
NCI-H460 lung = test system: NCI-H460 lung
HCT-116 colon = test system: HCT-116 colon
HOP-92 NSCLC = test system: HOP-92 NSCLC
UACC-62 melanoma = test system: UACC-62 melanoma
TK-10 renal = test system: TK-10 renal
KM12 colon = test system: KM12 colon
A498 renal = test system: A498 renal
DU-145 prostate = test system: DU-145 prostate
MOLT-4 leukemia = test system: MOLT-4 leukemia
UACC-257 melanoma = test system: UACC-257 melanoma
786-0 renal = test system: 786-0 renal
SK-MEL-28 melanoma = test system: SK-MEL-28 melanoma
HT29 colon = test system: HT29 colon
SK-OV-3 ovarian = test system: SK-OV-3 ovarian
OVCAR-5 ovarian = test system: OVCAR-5 ovarian
UO-31 renal = test system: UO-31 renal
SR leukemia = test system: SR leukemia
SK-MEL-5 melanoma = test system: SK-MEL-5 melanoma
MALME-3M melanoma = test system: MALME-3M melanoma
NCI-H226 lung = test system: NCI-H226 lung

## CC(=O)Nc1ccc(OC/C(N)=N/NC(=O)c2ccncc2)cc1
RXF 393 renal
  TGI: > 100000 nM
ACHN renal
  TGI: > 100000 nM
PC-3 prostate
  TGI: > 100000 nM
HOP-62 NSCLC
  TGI: > 100000 nM
CCRF-CEM leukemia
  TGI: > 100000 nM
HS 578T breast
  TGI: > 100000 nM
OVCAR-4 ovarian
  TGI: > 100000 nM
NCI-H522 lung
  TGI: > 100000 nM
OVCAR-8 ovarian
  TGI: > 100000 nM
CAKI-1 renal
  TGI: > 100000 nM
COLO 205 colon
  TGI: > 100000 nM
EKVX NSCLC
  TGI: > 100000 nM
SF-539 CNS
  TGI: > 100000 nM
HL-60(TB) leukemia
  TGI: > 100000 nM
T-47D breast
  TGI: > 100000 nM
SF-268 CNS
  TGI: > 100000 nM
OVCAR-3 ovarian
  TGI: > 100000 nM
BT-549 breast
  TGI: > 100000 nM
HCC-2998 colon
  TGI: > 100000 nM
M14 melanoma
  TGI: > 100000 nM
A549 NSCLC
  TGI: > 100000 nM
K-562 leukemia
  TGI: > 100000 nM
LOX IMVI melanoma
  TGI: > 100000 nM
SNB-19 CNS
  TGI: > 100000 nM
U251 CNS
  TGI: > 100000 nM
NCI-H23 lung
  TGI: > 100000 nM
HCT-15 colon
  TGI: > 100000 nM
MDA-MB-231 breast
  TGI: > 100000 nM
MDA-MB-435
  TGI: > 100000 nM
MCF7 breast
  TGI: > 100000 nM
SK-MEL-2 melanoma
  TGI: > 100000 nM
MDA-N
  TGI: > 100000 nM
NCI/ADR-RES ovarian
  TGI: > 100000 nM
SNB-75 CNS
  TGI: > 100000 nM
SF-295 CNS
  TGI: > 100000 nM
SN12C renal
  TGI: > 100000 nM
SW-620 colon
  TGI: > 100000 nM
IGROV1 ovarian
  TGI: > 100000 nM
RPMI-8226 leukemia
  TGI: > 100000 nM
NCI-H460 lung
  TGI: > 100000 nM
HCT-116 colon
  TGI: > 100000 nM
HOP-92 NSCLC
  TGI: > 100000 nM
UACC-62 melanoma
  TGI: > 100000 nM
TK-10 renal
  TGI: > 100000 nM
KM12 colon
  TGI: > 100000 nM
A498 renal
  TGI: > 100000 nM
DU-145 prostate
  TGI: > 100000 nM
MOLT-4 leukemia
  TGI: > 100000 nM
UACC-257 melanoma
  TGI: > 100000 nM
786-0 renal
  TGI: > 100000 nM
SK-MEL-28 melanoma
  TGI: > 100000 nM
HT29 colon
  TGI: > 100000 nM
SK-OV-3 ovarian
  TGI: > 100000 nM
OVCAR-5 ovarian
  TGI: > 100000 nM

## COc1cc2c(cc1OCCCCCCN1CCN(CC(=O)Nc3ccc(Cl)cc3C(=O)c3ccccc3Cl)CC1)N=CC1CCCN1C2=O (configuration not stated)
RXF 393 renal
  GI50: 168 nM
  TGI: 324 nM
ACHN renal
  GI50: 300 nM
  TGI: 765 nM
PC-3 prostate
  GI50: 308 nM
  TGI: 715 nM
HOP-62 NSCLC
  GI50: 146 nM
  TGI: 294 nM
HS 578T breast
  GI50: 243 nM
  TGI: 589 nM
OVCAR-4 ovarian
  GI50: 419 nM
  TGI: 1250 nM
NCI-H522 lung
  GI50: 143 nM
  TGI: 322 nM
OVCAR-8 ovarian
  GI50: 201 nM
  TGI: 607 nM
CAKI-1 renal
  GI50: 151 nM
  TGI: 421 nM
COLO 205 colon
  GI50: 154 nM
  TGI: 314 nM
EKVX NSCLC
  GI50: 477 nM
  TGI: 1140 nM
SF-539 CNS
  GI50: 289 nM
  TGI: 740 nM
HL-60(TB) leukemia
  GI50: 244 nM
T-47D breast
  GI50: 164 nM
  TGI: 415 nM
OVCAR-3 ovarian
  GI50: 189 nM
  TGI: 396 nM
UO-31 renal
  GI50: 242 nM
  TGI: 681 nM
BT-549 breast
  GI50: 252 nM
  TGI: 898 nM
HCC-2998 colon
  GI50: 173 nM
  TGI: 314 nM
SR leukemia
  GI50: 44.7 nM
  TGI: 194 nM
SK-MEL-5 melanoma
  GI50: 513 nM
  TGI: 942 nM
A549 NSCLC
  GI50: 251 nM
  TGI: 765 nM
K-562 leukemia
  GI50: 193 nM
LOX IMVI melanoma
  GI50: 157 nM
  TGI: 305 nM
SNB-19 CNS
  GI50: 244 nM
  TGI: 632 nM
U251 CNS
  GI50: 258 nM
  TGI: 725 nM
NCI-H23 lung
  GI50: 198 nM
  TGI: 468 nM
HCT-15 colon
  GI50: 518 nM
  TGI: 1180 nM
MDA-MB-231 breast
  GI50: 383 nM
  TGI: 1070 nM
MDA-MB-435
  GI50: 157 nM
  TGI: 304 nM
MCF7 breast
  GI50: 153 nM
  TGI: 321 nM
SK-MEL-2 melanoma
  GI50: 217 nM
  TGI: 556 nM
NCI/ADR-RES ovarian
  GI50: 733 nM
  TGI: 2480 nM
SNB-75 CNS
  GI50: 169 nM
  TGI: 472 nM
SF-295 CNS
  GI50: 180 nM
  TGI: 461 nM
SN12C renal
  GI50: 298 nM
  TGI: 1080 nM
SW-620 colon
  GI50: 211 nM
  TGI: 591 nM
IGROV1 ovarian
  GI50: 195 nM
  TGI: 388 nM
MALME-3M melanoma
  GI50: 185 nM
  TGI: 361 nM
NCI-H460 lung
  GI50: 180 nM
  TGI: 334 nM
HCT-116 colon
  GI50: 183 nM
  TGI: 481 nM
NCI-H226 lung
  GI50: 575 nM
  TGI: 1450 nM
HOP-92 NSCLC
  GI50: 177 nM
  TGI: 396 nM
UACC-62 melanoma
  GI50: 408 nM
  TGI: 975 nM
TK-10 renal
  GI50: 497 nM
  TGI: 1170 nM
A498 renal
  GI50: 535 nM
  TGI: 1000 nM
DU-145 prostate
  GI50: 254 nM
  TGI: 715 nM
MOLT-4 leukemia
  GI50: 167 nM
  TGI: 426 nM
UACC-257 melanoma
  GI50: 200 nM
  TGI: 775 nM
786-0 renal
  GI50: 339 nM
  TGI: 823 nM
SK-MEL-28 melanoma
  GI50: 185 nM
  TGI: 332 nM
HT29 colon
  GI50: 229 nM
  TGI: 576 nM
SK-OV-3 ovarian
  GI50: 494 nM
  TGI: 1170 nM
OVCAR-5 ovarian
  GI50: 567 nM
  TGI: 1340 nM

## CN(C)/N=N/c1nc2c(c(=O)n(C)c(=O)n2C)n1CC(O)CO (configuration not stated)
RXF 393 renal
  TGI: > 100000 nM
ACHN renal
  TGI: > 100000 nM
PC-3 prostate
  TGI: > 100000 nM
HOP-62 NSCLC
  TGI: > 100000 nM
CCRF-CEM leukemia
  TGI: > 100000 nM
HS 578T breast
  TGI: > 100000 nM
OVCAR-4 ovarian
  TGI: > 100000 nM
NCI-H522 lung
  TGI: > 100000 nM
OVCAR-8 ovarian
  TGI: > 100000 nM
CAKI-1 renal
  TGI: > 100000 nM
COLO 205 colon
  TGI: > 100000 nM
EKVX NSCLC
  TGI: > 100000 nM
HL-60(TB) leukemia
  TGI: > 100000 nM
T-47D breast
  TGI: > 100000 nM
SF-268 CNS
  TGI: > 100000 nM
OVCAR-3 ovarian
  TGI: > 100000 nM
UO-31 renal
  TGI: > 100000 nM
BT-549 breast
  TGI: > 100000 nM
HCC-2998 colon
  TGI: > 100000 nM
M14 melanoma
  TGI: > 100000 nM
SK-MEL-5 melanoma
  TGI: > 100000 nM
A549 NSCLC
  TGI: > 100000 nM
K-562 leukemia
  TGI: > 100000 nM
SNB-19 CNS
  TGI: > 100000 nM
U251 CNS
  TGI: > 100000 nM
NCI-H23 lung
  TGI: > 100000 nM
HCT-15 colon
  TGI: > 100000 nM
MDA-MB-231 breast
  TGI: > 100000 nM
MDA-MB-435
  TGI: > 100000 nM
MCF7 breast
  TGI: > 100000 nM
SK-MEL-2 melanoma
  TGI: > 100000 nM
MDA-N
  TGI: > 100000 nM
NCI/ADR-RES ovarian
  TGI: > 100000 nM
SNB-75 CNS
  TGI: > 100000 nM
SF-295 CNS
  TGI: > 100000 nM
SN12C renal
  TGI: > 100000 nM
SW-620 colon
  TGI: > 100000 nM
IGROV1 ovarian
  TGI: > 100000 nM
RPMI-8226 leukemia
  TGI: > 100000 nM
MALME-3M melanoma
  TGI: > 100000 nM
NCI-H460 lung
  TGI: > 100000 nM
HCT-116 colon
  TGI: > 100000 nM
NCI-H226 lung
  TGI: > 100000 nM
UACC-62 melanoma
  TGI: > 100000 nM
TK-10 renal
  TGI: > 100000 nM
KM12 colon
  TGI: > 100000 nM
DU-145 prostate
  TGI: > 100000 nM
MOLT-4 leukemia
  TGI: > 100000 nM
UACC-257 melanoma
  TGI: > 100000 nM
786-0 renal
  TGI: > 100000 nM
SK-MEL-28 melanoma
  TGI: > 100000 nM
HT29 colon
  TGI: > 100000 nM
SK-OV-3 ovarian
  TGI: > 100000 nM
OVCAR-5 ovarian
  TGI: > 100000 nM
